Results from patent EP4711369A1, “1H-[1,2,3]TRIAZOLO[4,5-H]QUINAZOLINE COMPOUNDS AS PROTEIN KINASE INHIBITORS” (Chengdu Cynogen Bio-Pharmaceutical Technology Co., Ltd., priority 2023, dated 2024).

Key:
[1] = test system: Human gastric cancer MKN1 cells; assay: MKN1 tumor model; assay type: in vivo; settings: female BALB/c nude mice, p.o. 10, 20 and 30 mg/kg once daily, 22 days, Fig. 4
Description: Human gastric cancer MKN1 cells were cultured in RPMI 1640 medium containing 10% FBS at 37 °C and 5% CO2 in an incubator. Matrigel was mixed with serum-free RPMI 1640 medium at a ratio of 1:1, and then the mixture was used to resuspend the MKN1 cancer cells at 1 × 10^7 / 0.1 ml. Then, the cells were inoculated subcutaneously into the right rib area of female BALB/c nude mice. When the volume of tumors reached approximately 100-150 mm^3, the mice were randomly divided into groups for treatment, with six animals per group. The compound was prepared in a 20% aqueous solution of hydroxypropyl-gamma-cyclodextrin containing an equivalent amount of hydrochloric acid, and administered by oral gavage (p.o.) at dosages of 10, 20, and 30 (mg/kg) once daily, for a total of 22 days. The untreated group was given solvent by oral gavage. The tumor volume was measured twice a week using a vernier caliper by measuring the long and short diameters of a tumor. The formula for calculating a tumor volume was: volume (mm^3) = (long diameter (mm) × short diameter (mm) × short diameter (mm)/2. The mice were weighed daily.
The therapeutic effect of a drug was evaluated using the tumor growth inhibition (TGI%).

CDK6/cyclin D3 = CDK6/cyclin D3 (Homo sapiens, UniProt Q00534); assay: Assay of kinase activity (ADP-Glo); assay type: biochemical; settings: kinase inhibitory activity
Chain of CDK6/cyclin D3 (Q00534 whole entry, species assumed): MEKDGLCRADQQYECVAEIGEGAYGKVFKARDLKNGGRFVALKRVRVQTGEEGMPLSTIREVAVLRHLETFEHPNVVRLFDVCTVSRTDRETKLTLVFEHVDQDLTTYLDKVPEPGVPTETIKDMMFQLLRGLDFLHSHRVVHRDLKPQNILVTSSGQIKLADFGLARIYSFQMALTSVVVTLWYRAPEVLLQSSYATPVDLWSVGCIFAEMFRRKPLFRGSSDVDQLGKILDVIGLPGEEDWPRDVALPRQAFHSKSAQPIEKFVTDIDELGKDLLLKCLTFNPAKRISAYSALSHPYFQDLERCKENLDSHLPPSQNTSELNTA
Chain of CDK6/cyclin D3 (P30281 whole entry partner, species assumed): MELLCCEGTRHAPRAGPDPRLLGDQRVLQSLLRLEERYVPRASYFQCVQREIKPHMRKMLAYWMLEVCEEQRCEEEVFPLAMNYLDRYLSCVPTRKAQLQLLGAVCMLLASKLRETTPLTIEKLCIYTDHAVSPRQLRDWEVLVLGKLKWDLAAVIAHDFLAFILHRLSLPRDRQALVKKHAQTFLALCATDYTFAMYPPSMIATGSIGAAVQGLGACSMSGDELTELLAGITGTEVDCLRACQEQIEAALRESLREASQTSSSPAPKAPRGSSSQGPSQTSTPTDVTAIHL
Procedure, shortened: (§1)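 ADP production quantified by luminescence after 60 min kinase reaction at 25 °C, started with substrate/ATP following 10 min enzyme-compound preincubation. Buffer: 50 mM Hepes, 10 mM MgCl2, 0.01% Brij35, 2 mM DTT. IC50 obtained by nonlinear curve fitting of inhibition data.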

CDK9/cyclin T1 = CDK9/cyclin T1 (Homo sapiens, UniProt P50750); assay: Assay of kinase activity (ADP-Glo); assay type: biochemical; settings: kinase inhibitory activity
Chain of CDK9/cyclin T1 (P50750 whole entry, species assumed): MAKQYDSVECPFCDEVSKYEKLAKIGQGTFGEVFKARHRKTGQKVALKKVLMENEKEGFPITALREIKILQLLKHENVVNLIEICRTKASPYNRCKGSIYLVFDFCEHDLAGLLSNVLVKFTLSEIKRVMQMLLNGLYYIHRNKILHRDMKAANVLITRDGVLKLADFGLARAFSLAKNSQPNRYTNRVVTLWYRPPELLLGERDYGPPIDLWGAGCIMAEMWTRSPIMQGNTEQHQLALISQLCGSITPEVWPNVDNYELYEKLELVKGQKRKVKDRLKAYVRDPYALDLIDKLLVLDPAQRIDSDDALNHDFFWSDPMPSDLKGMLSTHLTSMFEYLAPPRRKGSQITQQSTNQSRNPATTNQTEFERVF
Chain of CDK9/cyclin T1 (O60563 whole entry partner, species assumed): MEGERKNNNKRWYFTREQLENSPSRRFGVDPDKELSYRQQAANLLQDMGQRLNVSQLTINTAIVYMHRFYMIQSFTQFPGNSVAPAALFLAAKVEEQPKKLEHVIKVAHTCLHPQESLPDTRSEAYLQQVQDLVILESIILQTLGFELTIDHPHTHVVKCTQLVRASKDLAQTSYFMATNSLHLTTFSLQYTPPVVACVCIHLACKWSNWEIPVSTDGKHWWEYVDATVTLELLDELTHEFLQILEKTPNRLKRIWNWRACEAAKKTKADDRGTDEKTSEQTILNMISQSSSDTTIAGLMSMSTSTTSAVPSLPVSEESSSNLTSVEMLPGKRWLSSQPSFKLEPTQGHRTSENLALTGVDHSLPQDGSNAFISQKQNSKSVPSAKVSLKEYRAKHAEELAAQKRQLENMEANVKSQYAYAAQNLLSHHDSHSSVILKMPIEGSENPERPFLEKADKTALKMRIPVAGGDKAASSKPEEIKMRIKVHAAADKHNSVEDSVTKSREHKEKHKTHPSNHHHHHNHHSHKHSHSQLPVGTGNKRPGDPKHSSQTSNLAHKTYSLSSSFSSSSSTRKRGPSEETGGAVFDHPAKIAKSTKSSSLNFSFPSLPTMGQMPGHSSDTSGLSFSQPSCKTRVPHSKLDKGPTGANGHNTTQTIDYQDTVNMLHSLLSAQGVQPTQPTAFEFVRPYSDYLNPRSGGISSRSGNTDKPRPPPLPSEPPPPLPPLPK
Procedure, shortened: as §1

[2] = test system: Human ovarian cancer OVCAR3 cells; assay: Assay of cell proliferation (CellTiter-Glo); assay type: cell-based; settings: Homo sapiens, OVCAR-3, 144 h, 6 days, read-out: OVCAR3 IC50 of cell proliferation inhibitory activity
Procedure, shortened: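 OVCAR3 cells, 2000/well in RPMI 1640 with 20% FBS, treated with nine 3-fold dilutions from 10 µM to 0.1 nM (0.5% DMSO) for 6 days at 37 °C. Viability by CellTiter-Glo luminescence; IC50 by four-parameter fit.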

For `CC(C)n1nnc2ccc3cnc(Nc4ccc(C(=O)N5CC[C@H](N(C)C)C5)cc4)nc3c21` [Example I-10, (S)-(3-(Dimethylamino)pyrrolidin-1-yl)(4-((1-isopropyl-1H-[1,2,3]triazolo[4,5-H]quinazolin-8-yl)amino)phenyl)metha none], the “growth inhibitory effect on the MKN1 tumor model (TGI%)” value [1] was “dose-dependent relationship”, the IC50 (CDK6/cyclin D3) was 4 nM and the IC50 (CDK9/cyclin T1) was 2 nM. It also gave an IC50 [2] of 16 nM.
